Consider 25 molecules from patent US8003785B2 (Takeda Pharmaceutical Company Limited, priority 2008, dated 2011).

Molecules are shown by their SMILES. Bounds are passed on as bounds.

The experiment concerns the target T1, PLK1 (Homo sapiens, UniProt P53350).
T1 construct: Full-length, active GST-PLK1 is purified from Sf9 insect cells; made in house; host or cells: Sf9 insect cells
The experiment in a line: Biochemical Characterization Assay: HTRF kinase assay, GST-PLK1 phosphorylation of GST-p53. The note with it: GST-PLK1, GST-p53 substrate. In a few lines: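 Full-length active GST-PLK1 (Sf9, 3 ug/mL) phosphorylated full-length GST-p53 (E. coli) in Kinase Assay Buffer for 35 min at 37 °C. Stopped with EDTA; phospho-p53 detected by HTRF with anti-phospho-p53, Eu-anti-rabbit and APC-anti-GST antibodies.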
Background: TR-FRET usually uses a lanthanide donor and a delayed reading to cut background.

T1 sequence (P53350 whole entry): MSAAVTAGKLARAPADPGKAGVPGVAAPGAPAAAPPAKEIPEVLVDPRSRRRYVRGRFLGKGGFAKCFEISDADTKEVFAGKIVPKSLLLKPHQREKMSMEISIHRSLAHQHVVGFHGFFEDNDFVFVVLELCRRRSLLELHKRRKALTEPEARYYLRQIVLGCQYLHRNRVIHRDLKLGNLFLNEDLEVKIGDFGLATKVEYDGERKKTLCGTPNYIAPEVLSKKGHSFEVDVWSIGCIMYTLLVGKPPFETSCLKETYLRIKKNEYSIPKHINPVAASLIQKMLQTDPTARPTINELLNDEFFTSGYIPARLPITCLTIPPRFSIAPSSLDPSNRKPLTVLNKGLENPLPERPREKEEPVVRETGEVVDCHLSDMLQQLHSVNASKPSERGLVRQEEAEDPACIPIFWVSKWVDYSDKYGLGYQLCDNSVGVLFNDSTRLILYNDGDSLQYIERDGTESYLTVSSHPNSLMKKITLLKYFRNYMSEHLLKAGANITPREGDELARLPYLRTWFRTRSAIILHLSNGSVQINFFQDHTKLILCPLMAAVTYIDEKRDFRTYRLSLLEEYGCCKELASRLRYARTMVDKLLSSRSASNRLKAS

On to `COc1cc(C(N)=O)ccc1Nc1ncc2c(n1)N(CCc1ccccc1)CC(F)(F)C(=O)N2C` [Example I-277, 4-(7,7-difluoro-5-methyl-6-oxo-9-phenethyl-6,7,8,9-tetrahydro-5H-pyrimido[4,5-b][1,4]diazepin-2-ylamino)-3-methoxy-benzamide], for which the IC50 (in general, the concentration that inhibits the measured activity by half) fell in the range of 51 to 500 nM.

On to `CNC(=O)c1ccc(Nc2ncc3c(n2)N(C2CCCC2)CC(F)(F)C(=O)N3)c(OC)c1` [Example I-153, 4-(9-cyclopentyl-7,7-difluoro-6-oxo-6,7,8,9-tetrahydro-5H-pyrimido[4,5-b][1,4]diazepin-2-ylamino)-3-methoxy-N-methyl-benzamide], for which the IC50 (ATP) lay in the range of 500 to 5000 nM.

The molecule `COc1cc(C(=O)NCC2CCN(C(=O)OC(C)(C)C)C2)ccc1Nc1ncc2c(n1)N(C1CCCC1)CC(F)(F)C(=O)N2C` (stereo not shown) [Example I-92, 3-{[4-(9-cyclopentyl-7,7-difluoro-5-methyl-6-oxo-6,7,8,9-tetrahydro-5H-pyrimido[4,5-b][1,4]diazepin-2-ylamino)-3-methoxy-benzoylamino]-methyl}-pyrrolidine-1-carboxylic acid tert-butyl ester] had an IC50 (ATP) of 51 to 500 nM.

`COc1cc(C(=O)NC2CCN(C)CC2)ccc1Nc1ncc2c(n1)N(CCc1cccs1)CC(F)(F)C(=O)N2C` [Example I-270, 4-[7,7-difluoro-5-methyl-6-oxo-9-(2-thiophen-2-yl-ethyl)-6,7,8,9-tetrahydro-5H-pyrimido[4,5-b][1,4]diazepin-2-ylamino]-3-methoxy-N-(1-methyl-piperidin-4-yl)-benzamide] had an IC50 of 1 to 50 nM.

Consider `CNC(=O)c1ccc(Nc2ncc3c(n2)N(C(C)C)CC(F)(F)C(=O)N3C)c(OC)c1` [Example I-295, 4-(7,7-difluoro-9-isopropyl-5-methyl-6-oxo-6,7,8,9-tetrahydro-5H-pyrimido[4,5-b][1,4]diazepin-2-ylamino)-3-methoxy-N-methyl-benzamide], for which the IC50 was in the range of 1 to 50 nM.

With `COc1cc(C(=O)NC2CCN(C)CC2)ccc1Nc1ncc2c(n1)N(C1CCCCC1)CC(F)(F)C(=O)N2C` [Example I-247, 4-(9-cyclohexyl-7,7-difluoro-5-methyl-6-oxo-6,7,8,9-tetrahydro-5H-pyrimido[4,5-b][1,4]diazepin-2-ylamino)-3-methoxy-N-(1-methyl-piperidin-4-yl)-benzamide], the IC50 was in the range of 1 to 50 nM.

As to `CCN1C(=O)C(F)(F)CN(C2CCCC2)c2nc(Nc3ccc(C(=O)NC)cc3)ncc21` [Example I-140, 4-(9-cyclopentyl-5-ethyl-7,7-difluoro-6-oxo-6,7,8,9-tetrahydro-5H-pyrimido[4,5-b][1,4]diazepin-2-ylamino)-N-methyl-benzamide], under “ATP”, the IC50 was 500 to 5000 nM.

With `CCCN1C(=O)C(F)(F)CN(C2CCCC2)c2nc(Nc3ccc(C(=O)NC4CCOCC4)cc3OC)ncc21` [Example I-167, 4-(9-cyclopentyl-7,7-difluoro-6-oxo-5-propyl-6,7,8,9-tetrahydro-5H-pyrimido[4,5-b][1,4]diazepin-2-ylamino)-3-methoxy-N-(tetrahydro-pyran-4-yl)-benzamide], the IC50 fell in the range of 500 to 5000 nM.

`COc1cc(C(=O)O)ccc1Nc1ncc2c(n1)N([C@@H]1C[C@H]1c1ccccc1)CC(F)(F)C(=O)N2C` (relative stereo) [Example I-287, 4-[7,7-difluoro-5-methyl-6-oxo-9-(trans-2-phenyl-cyclopropyl)-6,7,8,9-tetrahydro-5H-pyrimido[4,5-b][1,4]diazepin-2-ylamino]-3-methoxy-benzoic acid] showed an IC50 above 5000 nM.

For the molecule `COc1cc(C(=O)N[C@@H]2CCN(Cc3ccccc3)C2)ccc1Nc1ncc2c(n1)N(C1CCCC1)CC(F)(F)C(=O)N2C` [Example I-101, N—((R)-1-benzyl-pyrrolidin-3-yl)-4-(9-cyclopentyl-7,7-difluoro-5-methyl-6-oxo-6,7,8,9-tetrahydro-5H-pyrimido[4,5-b][1,4]diazepin-2-ylamino)-3-methoxy-benzamide], the IC50 (ATP) was 1 to 50 nM.

`CCc1cc(C(=O)NC2CCN(C(=O)OC(C)(C)C)CC2)ccc1Nc1ncc2c(n1)N(C1CCCC1)CC(F)(F)C(=O)N2C` [Example I-201, 4-[4-(9-cyclopentyl-7,7-difluoro-5-methyl-6-oxo-6,7,8,9-tetrahydro-5H-pyrimido[4,5-b][1,4]diazepin-2-ylamino)-3-ethyl-benzoylamino]-piperidine-1-carboxylic acid tert-butyl ester] registered an IC50 of 51 to 500 nM.

Take `CN1C(=O)C(F)(F)CN(C2CCCC2)c2nc(Nc3cc(F)c(C(=O)NC4CCOCC4)cc3F)ncc21` [Example I-235, 4-(9-cyclopentyl-7,7-difluoro-5-methyl-6-oxo-6,7,8,9-tetrahydro-5H-pyrimido[4,5-b][1,4]diazepin-2-ylamino)-2,5-difluoro-N-(tetrahydro-pyran-4-yl)-benzamide]: the IC50 is 1 to 50 nM.

As to `COc1cc(C(=O)NCc2ccccc2)ccc1Nc1ncc2c(n1)N(C1CCCC1)CC(F)(F)C(=O)N2C` [Example I-35, N-benzyl-4-(9-cyclopentyl-7,7-difluoro-5-methyl-6-oxo-6,7,8,9-tetrahydro-5H-pyrimido[4,5-b][1,4]diazepin-2-ylamino)-3-methoxy-benzamide], under “ATP”, the IC50 was in the range of 51 to 500 nM.

In the case of `COc1cc(C(=O)NC2CCN(CCCS(C)(=O)=O)CC2)ccc1Nc1ncc2c(n1)N(C1CCCC1)CC(F)(F)C(=O)N2C` [Example I-76, 4-(9-cyclopentyl-7,7-difluoro-5-methyl-6-oxo-6,7,8,9-tetrahydro-5H-pyrimido[4,5-b][1,4]diazepin-2-ylamino)-N-[1-(3-methanesulfonyl-propyl)-piperidin-4-yl]-3-methoxy-benzamide], the IC50 (ATP) was 1 to 50 nM.

For `CCCN1C(=O)C(F)(F)CN(C2CCCC2)c2nc(Nc3ccc(C(=O)NC)cc3)ncc21` [Example I-146, 4-(9-cyclopentyl-7,7-difluoro-6-oxo-5-propyl-6,7,8,9-tetrahydro-5H-pyrimido[4,5-b][1,4]diazepin-2-ylamino)-N-methyl-benzamide], where the note is “ATP”, the IC50 fell in the range of 500 to 5000 nM.

Molecule `COc1ccc(CN2CC(F)(F)C(=O)N(C)c3cnc(Nc4ccc(C(=O)NC5CCN(C)CC5)cc4OC)nc32)cc1` [Example I-291, 4-[7,7-difluoro-9-(4-methoxy-benzyl)-5-methyl-6-oxo-6,7,8,9-tetrahydro-5H-pyrimido[4,5-b][1,4]diazepin-2-ylamino]-3-methoxy-N-(1-methyl-piperidin-4-yl)-benzamide] yielded an IC50 of 51 to 500 nM.

Consider `COc1cc(C(=O)NC2CCN(C(=O)C(C)(C)N)CC2)ccc1Nc1ncc2c(n1)N(C1CCCC1)CC(F)(F)C(=O)N2C` [Example I-88, N-[1-(2-amino-2-methyl-propionyl)-piperidin-4-yl]-4-(9-cyclopentyl-7,7-difluoro-5-methyl-6-oxo-6,7,8,9-tetrahydro-5H-pyrimido[4,5-b][1,4]diazepin-2-ylamino)-3-methoxy-benzamide], for which the IC50 (ATP) was 1 to 50 nM.

With `COc1cc(C(=O)NCCCN2CCCC2)ccc1Nc1ncc2c(n1)N(C1CCCC1)CC(F)(F)C(=O)N2C` [Example I-80, 4-(9-cyclopentyl-7,7-difluoro-5-methyl-6-oxo-6,7,8,9-tetrahydro-5H-pyrimido[4,5-b][1,4]diazepin-2-ylamino)-3-methoxy-N-(3-pyrrolidin-1-yl-propyl)-benzamide], the IC50 (ATP) was in the range of 1 to 50 nM.

Molecule `CCCN1C(=O)C(F)(F)CN(C2CCCC2)c2nc(Nc3ccc(C(=O)NC4CCN(C)CC4)cc3)ncc21` [Example I-147, 4-(9-cyclopentyl-7,7-difluoro-6-oxo-5-propyl-6,7,8,9-tetrahydro-5H-pyrimido[4,5-b][1,4]diazepin-2-ylamino)-N-(1-methyl-piperidin-4-yl)-benzamide] showed an IC50 (ATP) of 51 to 500 nM.

The molecule `COc1cc(C(=O)NC2CCOCC2)ccc1Nc1ncc2c(n1)N(CCc1ccccc1)CC(F)(F)C(=O)N2C` [Example I-280, 4-(7,7-difluoro-5-methyl-6-oxo-9-phenethyl-6,7,8,9-tetrahydro-5H-pyrimido[4,5-b][1,4]diazepin-2-ylamino)-3-methoxy-N-(tetrahydro-pyran-4-yl)-benzamide] displayed an IC50 of 51 to 500 nM.

For the molecule `COc1cc(C(=O)NCC2CCCCC2)ccc1Nc1ncc2c(n1)N(C1CCCC1)CC(F)(F)C(=O)N2C` [Example I-32, N-cyclohexylmethyl-4-(9-cyclopentyl-7,7-difluoro-5-methyl-6-oxo-6,7,8,9-tetrahydro-5H-pyrimido[4,5-b][1,4]diazepin-2-ylamino)-3-methoxy-benzamide], the IC50 (ATP) is 51 to 500 nM.

Turning to `CNC(=O)c1ccc(Nc2ncc3c(n2)N(C2CCC2)CC(F)(F)C(=O)N3C)cc1` [Example I-13, 4-(9-cyclobutyl-7,7-difluoro-5-methyl-6-oxo-6,7,8,9-tetrahydro-5H-pyrimido[4,5-b][1,4]diazepin-2-ylamino)-N-methyl-benzamide], the IC50 (ATP) lay in the range of 51 to 500 nM.

On to `COc1cc(C(N)=O)ccc1Nc1ncc2c(n1)N(C1CCCC1)CC(F)(F)C(=O)N2C` [Example I-23, 4-(9-cyclopentyl-7,7-difluoro-5-methyl-6-oxo-6,7,8,9-tetrahydro-5H-pyrimido[4,5-b][1,4]diazepin-2-ylamino)-3-methoxy-benzamide], for which the IC50 (ATP) is 1 to 50 nM.

Where the note is “ATP”, `CCN1CCC(NC(=O)c2ccc(Nc3ncc4c(n3)N(C3CCCC3)CC(F)(F)C(=O)N4C)c(OC)c2)CC1` [Example I-67, 4-(9-cyclopentyl-7,7-difluoro-5-methyl-6-oxo-6,7,8,9-tetrahydro-5H-pyrimido[4,5-b][1,4]diazepin-2-ylamino)-N-(1-ethyl-piperidin-4-yl)-3-methoxy-benzamide] came in with an IC50 of 1 to 50 nM.

Take `CNC(=O)c1ccc(Nc2ncc3c(n2)N(C2CCCC2)CC(F)(F)C(=O)N3C)c(OC)c1` [Example I-24, 4-(9-cyclopentyl-7,7-difluoro-5-methyl-6-oxo-6,7,8,9-tetrahydro-5H-pyrimido[4,5-b][1,4]diazepin-2-ylamino)-3-methoxy-N-methyl-benzamide]: where the note is “ATP”, the IC50 was in the range of 1 to 50 nM.
